# pKd: −log10 of the molar value. Read-outs that look alike come from different tables or passages of the source. Numbered stars: 1 amine (or outer) side, 2 acyl side, 3 side chain; on linkers, the order of the positions; unused ones are H or OH. Bridge positions count the residues as written; N and C are the ends. Square brackets hold non-standard residues; d marks the D form. Side chains are listed from the residue outwards. Peptide text beside a SMILES is read from it. * marks the point of attachment. DOTA(Lu) = O=C1CN2CCN3CCN(CC(=O)*)CCN(CC2)CC(=O)[O][Lu]([O]1)[O]C(=O)C3; NH(1-deoxy-D-glucityl) = OC[C@@H](O)[C@@H](O)[C@H](O)[C@@H](O)CN*; DOTA = O=C(O)CN1CCN(CC(=O)O)CCN(CC(=O)*)CCN(CC(=O)O)CC1; Trp(1-Me,7-Cl) = Cn1cc(C[C@H](N)C(=O)O)c2cccc(Cl)c21; dPhe(3-CONH2) = NC(=O)c1cccc(C[C@@H](N)C(=O)O)c1; Piperazinyl(4-CH2COOH) = O=C(O)CN1CCN(*)CC1; Trp(1-Me) = Cn1cc(C[C@H](N)C(=O)O)c2ccccc21; NMemTyr = CN[C@@H](Cc1cccc(O)c1)C(=O)O; d(tBuAla) = CC(C)(C)C[C@@H](N)C(=O)O; NMe3Pal = CN[C@@H](Cc1cccnc1)C(=O)O; NMeF = CN[C@@H](Cc1ccccc1)C(=O)O; hCit = NC(=O)NCCCC[C@H](N)C(=O)O; Gly(cBu) = N[C@H](C(=O)O)C1CCC1; NMeE = CN[C@@H](CCC(=O)O)C(=O)O; Aad = N[C@@H](CCCC(=O)O)C(=O)O; Cit = NC(=O)NCCC[C@H](N)C(=O)O; NMeN = CN[C@@H](CC(N)=O)C(=O)O; CO = O=C([*:1])[*:2]
# Target: T1, Recombinant Human EphA2 Fc Protein (Homo sapiens, UniProt P29317)
# T1 construct: purchased Elabscience
# T1 sequence (P29317 24-534 limits assumed): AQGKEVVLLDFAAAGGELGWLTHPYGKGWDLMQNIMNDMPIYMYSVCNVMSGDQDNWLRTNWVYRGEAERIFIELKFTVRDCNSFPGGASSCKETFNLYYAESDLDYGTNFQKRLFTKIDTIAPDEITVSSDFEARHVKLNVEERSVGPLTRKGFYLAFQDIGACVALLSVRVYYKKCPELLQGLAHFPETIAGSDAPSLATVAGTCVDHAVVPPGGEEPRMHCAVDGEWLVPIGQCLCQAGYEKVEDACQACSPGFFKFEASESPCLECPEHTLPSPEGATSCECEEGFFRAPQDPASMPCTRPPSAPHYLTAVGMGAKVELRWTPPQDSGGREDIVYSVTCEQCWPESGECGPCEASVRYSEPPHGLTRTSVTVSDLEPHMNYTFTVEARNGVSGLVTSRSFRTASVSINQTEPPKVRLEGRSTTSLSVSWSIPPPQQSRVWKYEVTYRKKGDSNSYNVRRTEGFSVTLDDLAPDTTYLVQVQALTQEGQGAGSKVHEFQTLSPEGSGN
# Test: Interaction analysis (kinetics, KD) of peptides and conjugates against EphA2 by SPR, Biacore T200, single-cycle kinetics (Examples B15 and B22)
# Type: binding
# Experimental: Example B15. Interaction Analysis by SPR was Performed Using Biacore (Cytiva)
# SPR assay was performed using Biacore T200 (Cytiva).
# The HBS-P+ buffer (10 mM HEPES (pH7.4), 150 mM NaCl, 0.05% (v/v) Surfactant P20) containing 1% DMSO was used as running buffer. Recombinant Human EphA2 Fc Protein (Fc tag, Elabscience) was captured by Human Antibody Capture kit (Cytiva). Peptide samples in DMSO were diluted with running buffer, and prepared five serial dilutions. Using these serial dilutions, kinetics of peptides against EphA2 was measured at a flow rate of […] at 25 °C. The method adopted for sample measurement was a single-cycle kinetics method. The analysis was conducted using the evaluation software 3.0 provided with Biacore T200. Kinetics fitting was done on the difference data obtained by subtracting the baseline data from sample measurement data. KD values were calculated based on the association rate constant (ka) and dissociation rate constant (kd).
# Example B22: Interaction Analysis of Conjugates by SPR was Performed Using Biacore (Cytiva)
# SPR assay was performed using Biacore T200 (Cytiva) according to Example B15.
# [1] = conjugates, Biacore T200 according to Example B15, Table B16, read-out: SPR Kd
Structure (SMILES),pKd,pKd [1],also measured
"C[C@H]1NC(=O)CSC[C@@H](C(=O)N[C@H](CCC(=O)O)C(N)=O)NC(=O)[C@H](CCCC(N)=O)NC(=O)[C@H]([C@@H](C)O)NC(=O)[C@H](Cc2cn(C)c3ccccc23)NC(=O)[C@H](CCCCNC(=O)N2CCN(CC(=O)O)CC2)NC(=O)[C@H](Cc2cn(C)c3c(Cl)cccc23)NC(=O)[C@H](CCC(=O)O)N(C)C(=O)[C@H](CCCCNC(=O)[C@@H](CC(C)(C)C)NC(=O)CN2CCN3CCN4CCN(CC2)CC(=O)[O][Lu]([O]C(=O)C3)[O]C(=O)C4)NC(=O)[C@H](C2CCC2)NC(=O)[C@H](CC(N)=O)NC(=O)[C@H](Cc2cccnc2)N(C)C1=O [PDC_EphA2-00027130] ({CH2CO}-[dA][NMe3Pal]N[Gly(cBu)]K([d(tBuAla)-DOTA(Lu)])[NMeE][Trp(1-Me,7-Cl)]K([CO-Piperazinyl(4-CH2COOH)])[Trp(1-Me)]T[Aad](NH2)C[dE]-NH2; thioether N-12)",> 9.00,,
"CN1C(=O)[C@H](CCC(=O)NC[C@H](O)[C@@H](O)[C@H](O)[C@H](O)CO)NC(=O)[C@H](C2CCC2)NC(=O)[C@H](CC(N)=O)NC(=O)[C@H](Cc2cccnc2)N(C)C(=O)[C@@H](Cc2cccc(C(N)=O)c2)NC(=O)CSC[C@@H](C(=O)N[C@@H](CCCCNC(=O)CN2CCN3CCN4CCN(CC2)CC(=O)[O][Lu]([O]C(=O)C3)[O]C(=O)C4)C(N)=O)NC(=O)[C@H](Cc2cn(C)c3ccccc23)NC(=O)[C@H](CCCCNC(N)=O)NC(=O)[C@H](Cc2cn(C)c3c(Cl)cccc23)NC(=O)[C@@H]1CCC(=O)O [PDC_EphA2-00026607-C301] ({CH2CO}-[dPhe(3-CONH2)][NMe3Pal]N[Gly(cBu)]E(NH(1-deoxy-D-glucityl))[NMeE][Trp(1-Me,7-Cl)][hCit][Trp(1-Me)]CK(DOTA(Lu))-NH2; thioether N-10)",> 9.00,,
"CC(C)C[C@@H]1NC(=O)[C@H](CC(N)=O)NC(=O)[C@H](Cc2cccnc2)N(C)C(=O)[C@@H](Cc2cccc(C(N)=O)c2)NC(=O)CSC[C@@H](C(N)=O)NC(=O)[C@H](CCCC(N)=O)NC(=O)[C@H]([C@@H](C)O)NC(=O)[C@H](Cc2cn(C)c3ccccc23)NC(=O)[C@H](CCCCNC(=O)CN2CCN3CCN4CCN(CC2)CC(=O)[O][Lu]([O]C(=O)C3)[O]C(=O)C4)NC(=O)[C@H](Cc2cn(C)c3c(Cl)cccc23)NC(=O)[C@H](CCC(=O)O)N(C)C(=O)[C@H](CCCC(N)=O)NC1=O [PDC_EphA2-00026718] ({CH2CO}-[dPhe(3-CONH2)][NMe3Pal]NL[Aad](NH2)[NMeE][Trp(1-Me,7-Cl)]K(DOTA(Lu))[Trp(1-Me)]T[Aad](NH2)C-NH2; thioether N-12)",> 9.00,,
CC(C)C[C@@H]1NC(=O)[C@H](CC(N)=O)NC(=O)[C@H](Cc2cccnc2)N(C)C(=O)[C@@H](C)NC(=O)CSC[C@@H](C(=O)N[C@H](CCCCNC(=O)CN2CCN(CC(=O)O)CCN(CC(=O)O)CCN(CC(=O)O)CC2)C(N)=O)NC(=O)[C@H](CCCC(N)=O)NC(=O)[C@H]([C@@H](C)O)NC(=O)[C@H](Cc2cn(C)c3ccccc23)NC(=O)[C@H](CCCCNC(=O)N2CCN(CC(=O)O)CC2)NC(=O)[C@H](Cc2cn(C)c3ccccc23)NC(=O)[C@H](CCC(=O)O)N(C)C(=O)[C@H](CCCC(N)=O)NC1=O.[Lu+3] [PDC_EphA2-00026772] ({CH2CO}-[dA][NMe3Pal]NL[Aad](NH2)[NMeE][Trp(1-Me)]K([CO-Piperazinyl(4-CH2COOH)])[Trp(1-Me)]T[Aad](NH2)C[dK](DOTA)-NH2; thioether N-12),,> 9.00,
"CC(C)C[C@@H]1NC(=O)[C@H](CC(N)=O)NC(=O)[C@H](Cc2cccnc2)N(C)C(=O)[C@@H](Cc2cccc(C(N)=O)c2)NC(=O)CSC[C@@H](C(N)=O)NC(=O)[C@H](CCCC(N)=O)NC(=O)[C@H]([C@@H](C)O)NC(=O)[C@H](Cc2cn(C)c3ccccc23)NC(=O)[C@H](CCCCNC(=O)N2CCN(CC(=O)O)CC2)NC(=O)[C@H](Cc2cn(C)c3c(Cl)cccc23)NC(=O)[C@H](CCC(=O)O)N(C)C(=O)[C@H](CCCCNC(=O)CN2CCN(CC(=O)O)CCN(CC(=O)O)CCN(CC(=O)O)CC2)NC1=O.[Lu+3] [PDC_EphA2-00026717] ({CH2CO}-[dPhe(3-CONH2)][NMe3Pal]NLK(DOTA)[NMeE][Trp(1-Me,7-Cl)]K([CO-Piperazinyl(4-CH2COOH)])[Trp(1-Me)]T[Aad](NH2)C-NH2; thioether N-12)",,> 9.00,
"CC(C)C[C@@H]1NC(=O)[C@H](CC(N)=O)NC(=O)[C@H](Cc2cccnc2)N(C)C(=O)[C@@H](Cc2cccc(C(N)=O)c2)NC(=O)CSC[C@@H](C(=O)N[C@H](CCCCNC(=O)CN2CCN3CCN4CCN(CC2)CC(=O)[O][Lu]([O]C(=O)C3)[O]C(=O)C4)C(N)=O)NC(=O)[C@H](CC(N)=O)NC(=O)[C@H]([C@@H](C)O)NC(=O)[C@H](Cc2cn(C)c3ccccc23)NC(=O)[C@H](CCCNC(N)=O)NC(=O)[C@H](Cc2cn(C)c3c(Cl)cccc23)NC(=O)[C@H](CC(N)=O)N(C)C(=O)[C@H](CC(N)=O)NC1=O [PDC_EphA2-00026426-C302] ({CH2CO}-[dPhe(3-CONH2)][NMe3Pal]NLN[NMeN][Trp(1-Me,7-Cl)][Cit][Trp(1-Me)]TNC[dK](DOTA(Lu))-NH2; thioether N-12)",> 9.00,,
"C[C@@H](O)[C@@H]1NC(=O)[C@H](Cc2cn(C)c3ccccc23)NC(=O)[C@H](CCCCNC(N)=O)NC(=O)[C@H](Cc2cn(C)c3c(Cl)cccc23)NC(=O)[C@H](CC(N)=O)N(C)C(=O)[C@H](CCCC(N)=O)NC(=O)[C@H](C2CCC2)NC(=O)[C@H](CC(N)=O)NC(=O)[C@H](Cc2ccccc2)N(C)C(=O)[C@@H](Cc2cccc(C(N)=O)c2)NC(=O)CSC[C@@H](C(N)=O)NC(=O)[C@H](CCCC(N)=O)NC1=O [PDC_EphA2-00019426] ({CH2CO}-[dPhe(3-CONH2)][NMeF]N[Gly(cBu)][Aad](NH2)[NMeN][Trp(1-Me,7-Cl)][hCit][Trp(1-Me)]T[Aad](NH2)C-NH2; thioether N-12)",,,"pKd (peptides, Biacore T200, 25 °C, Table B12, read-out: SPR Kd): > 9.00"
"C[C@H]1NC(=O)CSC[C@@H](C(=O)N[C@H](CCC(=O)O)C(N)=O)NC(=O)[C@H](CCCC(N)=O)NC(=O)[C@H]([C@@H](C)O)NC(=O)[C@H](Cc2cn(C)c3ccccc23)NC(=O)[C@H](CCCCNC(=O)N2CCN(CC(=O)O)CC2)NC(=O)[C@H](Cc2cn(C)c3c(Cl)cccc23)NC(=O)[C@H](CCC(=O)O)N(C)C(=O)[C@H](CCCCNC(=O)CN2CCN(CC(=O)O)CCN(CC(=O)O)CCN(CC(=O)O)CC2)NC(=O)[C@H](C2CCC2)NC(=O)[C@H](CC(N)=O)NC(=O)[C@H](Cc2cccnc2)N(C)C1=O.[Lu+3] [PDC_EphA2-00027105] ({CH2CO}-[dA][NMe3Pal]N[Gly(cBu)]K(DOTA)[NMeE][Trp(1-Me,7-Cl)]K([CO-Piperazinyl(4-CH2COOH)])[Trp(1-Me)]T[Aad](NH2)C[dE]-NH2; thioether N-12)",,> 9.00,
"C[C@@H](O)[C@@H]1NC(=O)[C@H](Cc2cn(C)c3ccccc23)NC(=O)[C@H](CCCCNC(=O)N2CCN(CC(=O)O)CC2)NC(=O)[C@H](Cc2cn(C)c3c(Cl)cccc23)NC(=O)[C@H](CCC(=O)O)N(C)C(=O)[C@H](CCCCNC(=O)CN2CCN(CC(=O)O)CCN(CC(=O)O)CCN(CC(=O)O)CC2)NC(=O)[C@H](C2CCC2)NC(=O)[C@H](CC(N)=O)NC(=O)[C@H](Cc2cccnc2)N(C)C(=O)[C@@H](Cc2cccc(C(N)=O)c2)NC(=O)CSC[C@@H](C(=O)N[C@H](CCC(=O)O)C(N)=O)NC(=O)[C@H](CCCC(N)=O)NC1=O.[Lu+3] [PDC_EphA2-00027106] ({CH2CO}-[dPhe(3-CONH2)][NMe3Pal]N[Gly(cBu)]K(DOTA)[NMeE][Trp(1-Me,7-Cl)]K([CO-Piperazinyl(4-CH2COOH)])[Trp(1-Me)]T[Aad](NH2)C[dE]-NH2; thioether N-12)",,> 9.00,
"C[C@@H](O)[C@@H]1NC(=O)[C@H](Cc2cn(C)c3ccccc23)NC(=O)[C@H](CCCCNC(=O)N2CCN(CC(=O)O)CC2)NC(=O)[C@H](Cc2cn(C)c3c(Cl)cccc23)NC(=O)[C@H](CCC(=O)O)N(C)C(=O)[C@H](CCCC(N)=O)NC(=O)[C@H](C2CCC2)NC(=O)[C@H](CC(N)=O)NC(=O)[C@H](Cc2cccc(O)c2)N(C)C(=O)[C@@H](Cc2cccc(C(N)=O)c2)NC(=O)CSC[C@@H](C(=O)N[C@H](CCCCNC(=O)CN2CCN3CCN4CCN(CC2)CC(=O)[O][Lu]([O]C(=O)C3)[O]C(=O)C4)C(N)=O)NC(=O)[C@H](CCCC(N)=O)NC1=O [PDC_EphA2-00022613-C302] ({CH2CO}-[dPhe(3-CONH2)][NMemTyr]N[Gly(cBu)][Aad](NH2)[NMeE][Trp(1-Me,7-Cl)]K([CO-Piperazinyl(4-CH2COOH)])[Trp(1-Me)]T[Aad](NH2)C[dK](DOTA(Lu))-NH2; thioether N-12)",> 9.00,,
"CN1C(=O)[C@H](CCC(=O)NC[C@H](O)[C@@H](O)[C@H](O)[C@H](O)CO)NC(=O)[C@H](C2CCC2)NC(=O)[C@H](CC(N)=O)NC(=O)[C@H](Cc2cccnc2)N(C)C(=O)[C@@H](Cc2cccc(C(N)=O)c2)NC(=O)CSC[C@@H](C(=O)N[C@@H](CCCCNC(=O)CN2CCN(CC(=O)O)CCN(CC(=O)O)CCN(CC(=O)O)CC2)C(N)=O)NC(=O)[C@H](Cc2cn(C)c3ccccc23)NC(=O)[C@H](CCCCNC(=O)N2CCN(CC(=O)O)CC2)NC(=O)[C@H](Cc2cn(C)c3c(Cl)cccc23)NC(=O)[C@@H]1Cc1cccnc1.[Lu+3] [PDC_EphA2-00026603-C301] ({CH2CO}-[dPhe(3-CONH2)][NMe3Pal]N[Gly(cBu)]E(NH(1-deoxy-D-glucityl))[NMe3Pal][Trp(1-Me,7-Cl)]K([CO-Piperazinyl(4-CH2COOH)])[Trp(1-Me)]CK(DOTA)-NH2; thioether N-10)",,> 9.00,
